PMC6332446, “Acylphloroglucinol Derivatives from the South African Helichrysum niveum and Their Biological Activities” (Molecules, 2015)

What was measured:
[1] = ORAC assay, hydroxyl radical absorbance capacity (ORACOH); conditions: trolox equivalents; H2O2 0.3%, Cu2+ 18 μM, 37 °C; ± % STDEV
Experimental: (§1) Automated Oxygen Radicals Absorbance Capacity (ORAC) Assay: ORAC was measured according to the method previously described. The method measures the antioxidant scavenging capacity for (a) peroxyl radicals generated by thermal decomposition of 2,2ʹ-azobis ([…]) dihydrochloride (AAPH; ORACROO assay); (b) hydroxyl radical (ORACOH assay), generated by H2O2-Cu^2+ (H2O2, 0.3%; Cu^2+ [as CuSO4], 18 μM, or (c) Cu^2+ [as CuSO4], 18 μM as a transition metal oxidant at 37 °C. ORAC values were expressed as micromoles of trolox equivalents (TE) per milligram of test sample, except when Cu^2+ (without H2O2) was used as an oxidant in the assay. In the presence of Cu^2+ without H2O2, test samples acted as prooxidants rather than antioxidants in the ORAC assay. The copper-initiated prooxidant activity was calculated using [(AreaBlank − AreaSample)/AreaBlank] × 100 and expressed as prooxidant units; one unit equals the prooxidant activity that reduces the area under the fluorescein decay curve by 1% in the ORAC assay.

[2] = Copper-initiated prooxidant activity in the ORAC assay; conditions: Cu2+ 18 μM without H2O2, 37 °C; one unit = 1% reduction of area under fluorescein decay curve
Experimental: as §1

[3] = Trolox equivalent absorbance capacity (TEAC) assay; conditions: trolox equivalents; absorbance 734 nm, 25 °C
Experimental: Trolox Equivalent Absorbance Capacity (TEAC) Assay: The total antioxidant capacity of the test samples in terms of TEAC were measured using a previously described method. Absorbance was read at 734 nm at 25 °C in a plate reader and the results were expressed as μM trolox equivalents per milligram dry weight (μM TE/g DW) of the test samples.

[4] = Ferric-ion reducing antioxidant power (FRAP) assay; conditions: ascorbic acid equivalents; absorbance 593 nm; ± % STDEV
Experimental: Ferric-Ion Reducing Antioxidant Power (FRAP) Assay: Working FRAP reagent was prepared in accordance to the method described previously. Absorbance was measured at 593 nm. L-ascorbic acid was used as a standard and the results were expressed as μM ascorbic acid equivalents per milligram dry weight (μM AAE/g DW) of the test samples.

mushroom tyrosinase = test: Tyrosinase enzyme assay; assay type: biochemical; conditions: L-Tyrosine substrate; samples screened at 100.00 μg/mL upper limit
Experimental: Tyrosinase Enzyme Assay: The tyrosinase inhibitory activity was measured using the spectrophotometric method previously described. Samples were dissolved in DMSO to a stock solution of 1 mg/mL, and further dilutions were then done with 50 mM sodium phosphate buffer (pH 6.5) for all working solutions. […] In the wells of a 96-well plate, 70 µL of each sample working solution was combined with 30 μL of tyrosinase (500 Units/mL in sodium phosphate buffer) in triplicate. After incubation at room temperature for 5 min, 110 μL of substrate (2 mM L-Tyrosine) was added to each well. Final concentrations of the crude extract, isolated compounds, and positive control ranged from 1.0–100 μg/mL. Incubation commenced for 30 min at room temperature and the enzyme activity was determined by measuring the absorbance at 490 nm. The percentage of tyrosinase inhibition was calculated as follows: Tyrosinase inhibition (%) = [(A − B) − (C − D)]/(A − B) × 100 (1) where A is the absorbance of the control with the enzyme, B is the absorbance of the control without the enzyme, C is the absorbance of the test sample with the enzyme and D is the absorbance of the test sample without the enzyme.

[5] = target: T1, elastase from porcine pancrease (Sus scrofa, UniProt P00772); test: biochemical; conditions: SANA substrate; samples screened at 100.00 μg/mL upper limit; read-out: Inhibitory Activities IC50, Elastase (converted)
T1 construct: from tissue; host or cells: porcine pancreas
T1 sequence (P00772 27-266): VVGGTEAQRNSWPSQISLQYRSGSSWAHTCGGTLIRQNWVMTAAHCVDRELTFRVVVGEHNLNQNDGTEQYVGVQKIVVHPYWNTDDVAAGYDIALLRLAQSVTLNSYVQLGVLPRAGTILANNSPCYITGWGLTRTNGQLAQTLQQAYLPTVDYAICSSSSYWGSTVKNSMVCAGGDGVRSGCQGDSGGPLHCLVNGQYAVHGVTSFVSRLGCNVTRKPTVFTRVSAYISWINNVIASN
Experimental: Elastase Inhibition Assay: Inhibition of elastase by the test samples was assayed using N-succyl-(Ala)-3-nitroanilide (SANA) as the substrate, monitoring the release of p-nitroanilide by the method described previously. The inhibitory activity determined the intensity of color released during cleavage of SANA by the action of elastase. Briefly, 1 mM SANA was prepared in 0.1 M Tris-HCl buffer pH 8.0 and 200 μL of this solution was added to the 20 μL of sample solution in a 96-Well plate. The mixtures were vortexed and preincubated for 10 min at 25 °C and then 20 μL of elastase from porcine pancrease (0.03 Units/mL) was added. The mixtures were further incubated for 10 min and the absorbance was measured at 410 nm. Methanol was used as control, while oleanolic acid used as a positive control.

[6] = target: Acetylcholinesterase (AChE) (Homo sapiens, UniProt P22303); test: biochemical; conditions: 500.00 μg/mL upper concentration limit; read-out: Inhibitory Activities IC50, Acetylcholinesterase (converted)
Acetylcholinesterase (AChE), sequence (P22303 32-614, species assumed): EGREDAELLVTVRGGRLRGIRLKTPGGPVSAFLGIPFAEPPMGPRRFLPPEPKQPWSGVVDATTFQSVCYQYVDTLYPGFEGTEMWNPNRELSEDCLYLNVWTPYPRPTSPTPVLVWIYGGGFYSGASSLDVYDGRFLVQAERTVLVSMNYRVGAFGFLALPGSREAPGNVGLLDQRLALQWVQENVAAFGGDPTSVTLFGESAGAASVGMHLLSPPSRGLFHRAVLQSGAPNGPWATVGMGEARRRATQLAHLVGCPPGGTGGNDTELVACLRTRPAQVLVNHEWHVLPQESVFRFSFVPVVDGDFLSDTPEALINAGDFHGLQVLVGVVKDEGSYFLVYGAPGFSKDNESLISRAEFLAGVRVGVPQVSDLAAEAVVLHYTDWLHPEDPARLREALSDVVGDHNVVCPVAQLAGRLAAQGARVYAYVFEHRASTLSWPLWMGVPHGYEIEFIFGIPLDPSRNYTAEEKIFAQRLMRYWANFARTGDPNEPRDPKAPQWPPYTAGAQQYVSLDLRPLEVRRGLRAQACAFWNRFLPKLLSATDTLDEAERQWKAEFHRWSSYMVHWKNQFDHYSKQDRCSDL
Experimental: Acetylcholinesterase Inhibition Assay: Acetylcholinesterase (AChE) inhibitory activity was measured using Ellman’s method as previously described with minor modifications. AChE catalysis the hydrolysis of acetythiocholine iodide (ACTI as substrate) to thiocholine, which can then react with Ellman’s reagent (DTNB) to produce 5-thio-2-nitrobenzoate (yellow color). In the presence of samples (inhibitors), the release of 5-thio-2-nitrobenzoate (yellow color) is reduced and it is monitored by measuring the absorbance at 450 nm.
In a 96-Well plate, the reaction mixture contains 50 µL of samples pre-incubated with 125 µL of 3 mM 5,5ʹ-Dithiobis-(2-nitrobenzoic acid), and 25 µL AChE (2.0 U/mL), in 50 mM tris-HCl buffer (pH 8.0), with 0.1% bovine serum albumin (BSA) for 15 minutes at 25 °C. Subsequently, 25 µL (15 mM) ACTI was added to the incubation mixture and further incubated for 10 min at 25 °C. […] Absorbance was recorded at 450 nm. The percent AChE inhibitory activity is given by: [A0 − (B − C)]/A0 × 100 (3) where A0 = full enzymatic reaction; B = Activity in the presence of sample; and C = Activity without sample.

Rat liver microsomes = conditions: Fe2+-induced, TBARs, samples screened at 50.00 μg/mL, ± STDEV
[7] = ORAC assay, peroxyl radical absorbance capacity (ORACROO); conditions: trolox equivalents; AAPH, 37 °C; ± % STDEV
Experimental: as §1

SMILES | Hydroxyl (ORACOH) [1] | Prooxidant (copper-initiated prooxidant activity) [2] [prooxidant units] | TEAC [3] [μM TE/g DW] | FRAP [4] [µMAAE/g] | Inhibitory Activities IC50, Tyrosinase (mushroom tyrosinase) [µg/mL] | IC50 [5] [µM] | IC50 [6] [µM] | Anti-Lipid peroxidation IC50 (Rat liver microsomes) [µg/mL] | Peroxyl (ORAC peroxyl radical absorbance capacity) [7] [µM TE/g]
CC(=O)OC/C(C)=C/Cc1c(O)cc(O)c(C(=O)c2ccccc2)c1O [Compound 1, 1-benzoyl-3(3-methylbut-2-enylacetate)-phloroglucinol] | 64.85 ± 10.95 × 10^6 µMTE/g | 8.92 ± 1.15 | 19545.00 ± 10.25 | 2530.54 ± 0.92 | 35.63 ± 4.67 | > 281 | 752 | 5.12 ± 0.90 | 
C=C(C)[C@@H](O)Cc1c(O)cc(O)c(C(=O)c2ccccc2)c1O [Compound 2, 1-benzoyl-3(2S-hydroxyl-3-methylbut-3-enyl)-phloroglucinol] | 94.97 ± 5.88 × 10^6 µMTE/g | 756.90 ± 1.98 | 43615.73 ± 6.66 | 4950.08 ± 0.65 | 26.72 ± 5.05 | > 318 | 852 | 3.55 ± 1.92 | 
CC(C)C(=O)c1c(O)cc(O)c2c1OC(C)(C)[C@@H](O)C2 [Compound 3, 8-(2-methyl-1-propanone)-3S,5,7-trihydroxyl-2,2-dimethylchromane] | 5.99 ± 4.52 × 10^6 µMTE/g | 41.73 ± 8.20 | 6001.40 ± 5.63 | 155.65 ± 12.02 | 80.31 ± 3.31 | 90.3 | 974 | >50.00 | 3937.78 ± 25.85
CCC(C)C(=O)c1c(O)cc(OCC=C(C)C)cc1O (centres unmarked) [Compound 4, 1-(2-methylbutanone)-4-O-prenyl-phloroglucinol] | 3.92 ± 14.47 × 10^6 µMTE/g | 7.02 ± 4.02 | 1629.10 ± 2.03 | 194.27 ± 1.78 | >100.00 | 164 | 981 | 44.62 ± 2.08 | 5406.65 ± 1.39
CC(C)=CCOc1cc(O)c(C(=O)C(C)C)c(O)c1 [Compound 5, 1-(2-methylpropanone)-4-O-prennyl-phloroglucinol] | 5.60 ± 0.79 × 10^6 µMTE/g | 12.33 ± 6.62 | 2673.62 ± 1.68 | 446.64 ± 8.07 | >100.00 | 263 | 957 | 20.22 ± 2.72 | 6053.87 ± 18.67
CCCC(=O)c1c(O)cc(O)c(CC=C(C)C)c1O [Compound 6, 1-(butanone)-3-prenyl-phloroglucinol] | 18.07± 3.47 × 10^6 µMTE/g | 64.37 ± 0.22 | 4316.61 ± 1.06 | 1183.52 ± 6.20 | >100.00 | 134 | 957 | 30.80 ± 2.12 | 13544.93 ± 12.13
CCC(C)C(=O)c1c(O)cc(O)c(CC=C(C)C)c1O (centres unmarked) [Compound 7, 1-(2-methylbutanone)-3-prenyl-phloroglucinol] | 23.12 ± 18.94 × 10^6 µMTE/g | 73.87 ± 1.10 | 9998.71 ± 2.66 | 1029.03 ± 0.66 | >100.00 | 240 | 936 | 27.49 ± 3.19 | 14139.74 ± 5.96
CC(C)=CCc1c(O)cc(O)c(C(=O)C(C)C)c1O [Compound 9, 1-(2-methylpropanone)-3-prenylphloroglucinol] | 24.24 ± 1.71 × 10^6 µMTE/g | 69.54 ± 0.29 | 4423.32 ± 3.11 | 1096.01 ± 1.12 | >100.00 | 233 |  | 20.95 ± 2.62 | 13639.27 ± 17.62
O=C(O[C@@H]1Cc2c(O)cc(O)cc2O[C@@H]1c1cc(O)c(O)c(O)c1)c1cc(O)c(O)c(O)c1 [EGCG, epigallocatechin gallate, reference compound] | 3.91 ± 4.65 × 10^6 µMTE/g | 6.48 ± 1.19 | 11545.44 ± 17.28 | 3326.45 ± 5.76 |  |  |  | 1.04 ± 1.02 | 
